Values joined by “and” are separate entries in the source; they are usually repeats but may differ in a detail not shown here. Equal values may be shown once. Inconclusive results and toxic doses are left out.
System: P388 leukemia ip, CD2F1 mice, survival T/C
Assay: NCI In Vivo Anticancer Drug Screen. Data for tumor model P388 Leukemia (intraperitoneal) in CD2F1 (CDF1) mice
Conditions: endpoint: median survival time, higher = longer survival
How it was run: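 Mice carrying the transplanted tumor received test compound or vehicle. Survival was recorded in each group, and the value is the treated-group measurement divided by that of the vehicle-treated control group.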

[1] = dose: 50.0 mg/kg/injection, schedule: Q01DX009 (ip), vehicle: saline with Tween-80
[2] = dose: 100.0 mg/kg/injection, schedule: Q01DX009 (ip), vehicle: saline with Tween-80
[3] = dose: 50.0 mg/kg/injection, schedule: Q01DX005 (ip), vehicle: saline with Tween-80
[4] = dose: 100.0 mg/kg/injection, schedule: Q01DX005 (ip), vehicle: saline with Tween-80
[5] = dose: 200.0 mg/kg/injection, schedule: Q01DX005 (ip), vehicle: saline with Tween-80
[6] = dose: 60.0 mg/kg/injection, schedule: Q01DX005 (ip), vehicle: saline with Tween-80
[7] = dose: 12.5 mg/kg/injection, schedule: Q01DX005 (ip), vehicle: Klucel (hydroxypropylcellulose) (HPC)
[8] = dose: 50.0 mg/kg/injection, schedule: Q01DX005 (ip), vehicle: Klucel (hydroxypropylcellulose) (HPC)

CC1C=NNC1=O (configuration not stated)
T/C (dose: 6.25 mg/kg/injection, schedule: Q01DX009 (ip), vehicle: saline with Tween-80): 112 % of control | T/C (dose: 125.0 mg/kg/injection, schedule: Q01DX009 (ip), vehicle: other): 120 % of control | T/C (dose: 125.0 mg/kg/injection, schedule: Q01DX009 (ip), vehicle: saline with Tween-80): 100 % of control | T/C (dose: 250.0 mg/kg/injection, schedule: Q01DX009 (ip), vehicle: other): 115 % of control | T/C (dose: 500.0 mg/kg/injection, schedule: Q01DX009 (ip), vehicle: other): 175 % of control | T/C (dose: 1000.0 mg/kg/injection, schedule: Q01DX009 (ip), vehicle: saline with Tween-80): 172 % of control

CCC1C(=O)OCCOCCOCCOCCOCCOC1=O
T/C (dose: 50.0 mg/kg/injection, schedule: Q01DX009 (ip), vehicle: Klucel (hydroxypropylcellulose) (HPC)): 100 % of control | T/C (dose: 100.0 mg/kg/injection, schedule: Q01DX009 (ip), vehicle: Klucel (hydroxypropylcellulose) (HPC)): 107 % of control | T/C (dose: 200.0 mg/kg/injection, schedule: Q01DX009 (ip), vehicle: Klucel (hydroxypropylcellulose) (HPC)): 99 % of control

Cc1cc(OC2OC(CO)C(OC3OC(CO)C(O)C(O)C3O)C(O)C2O)c2c(c1)C(=O)c1cccc(O)c1C2=O (configuration not stated)
T/C [1]: 104 % of control | T/C [2]: 104 % of control | T/C (dose: 200.0 mg/kg/injection, schedule: Q01DX009 (ip), vehicle: saline with Tween-80): 105 % of control

O=Nc1c(NO)n(-c2ccccc2)c(=S)n1-c1ccccc1
T/C [3]: 95 % of control | T/C [4]: 109 % of control | T/C [5]: 104 % of control

C(=Nc1cnc2ccccc2c1)c1ccnc2ccccc12
T/C (dose: 12.5 mg/kg/injection, schedule: Q01DX009 (ip), vehicle: saline with Tween-80): 98 % of control | T/C (dose: 12.5 mg/kg/injection, schedule: Q04DX003 (ip), vehicle: saline with Tween-80): 107 % of control | T/C (dose: 25.0 mg/kg/injection, schedule: Q01DX009 (ip), vehicle: saline with Tween-80): 98 % of control | T/C (dose: 25.0 mg/kg/injection, schedule: Q04DX003 (ip), vehicle: saline with Tween-80): 96 % of control | T/C [1]: 101 % of control | T/C (dose: 50.0 mg/kg/injection, schedule: Q04DX003 (ip), vehicle: saline with Tween-80): 114 % of control | T/C [2]: 96 % of control | T/C (dose: 100.0 mg/kg/injection, schedule: Q04DX003 (ip), vehicle: saline with Tween-80): 99 % of control

O=c1ccc2cc3ccoc3c(OCCCCCCBr)c2o1
T/C (dose: 100.0 mg/kg/injection, schedule: Q04DX002 (ip), vehicle: Klucel (hydroxypropylcellulose) (HPC)): 91 % of control | T/C (dose: 200.0 mg/kg/injection, schedule: Q04DX002 (ip), vehicle: Klucel (hydroxypropylcellulose) (HPC)): 99 % of control | T/C (dose: 400.0 mg/kg/injection, schedule: Q04DX002 (ip), vehicle: Klucel (hydroxypropylcellulose) (HPC)): 98 % of control

CC1(C)OC2(C)CCC1C1C2N1C(=O)Nc1cccc2ccccc12 (configuration not stated)
T/C [3]: 99 % of control | T/C [4]: 97 % of control | T/C [5]: 93 % of control

CSc1nc(NC2OC(CO)C(O)C(O)C2O)c(C=O)c(=O)[nH]1 (configuration not stated)
T/C [6]: 92 % of control | T/C (dose: 120.0 mg/kg/injection, schedule: Q01DX005 (ip), vehicle: saline with Tween-80): 95 % of control | T/C (dose: 240.0 mg/kg/injection, schedule: Q01DX005 (ip), vehicle: saline with Tween-80): 87 % of control

COCCn1cc(F)c(=O)[nH]c1=O
T/C (dose: 30.0 mg/kg/injection, schedule: Q04DX002 (ip), vehicle: saline): 110 % of control | T/C (dose: 60.0 mg/kg/injection, schedule: Q04DX002 (ip), vehicle: saline): 104 % of control | T/C (dose: 100.0 mg/kg/injection, schedule: Q04DX002 (ip), vehicle: saline): 115 % of control and 121 % of control | T/C (dose: 120.0 mg/kg/injection, schedule: Q04DX002 (ip), vehicle: saline): 119 % of control | T/C (dose: 200.0 mg/kg/injection, schedule: Q04DX002 (ip), vehicle: saline): 121 % of control | T/C (dose: 240.0 mg/kg/injection, schedule: Q04DX002 (ip), vehicle: saline): 121 % of control | T/C (dose: 400.0 mg/kg/injection, schedule: Q04DX002 (ip), vehicle: saline): 118 % of control and 121 % of control

Cc1cc(N/N=C/c2ccc(F)cc2)c2cc3c(cc2n1)OCO3
T/C [7]: 104 % of control | T/C (dose: 25.0 mg/kg/injection, schedule: Q01DX005 (ip), vehicle: Klucel (hydroxypropylcellulose) (HPC)): 104 % of control | T/C [8]: 107 % of control and 109 % of control

COc1cc(C[C@H]2[C@H]([C@H](O)c3ccc4c(c3)OCO4)C(=O)O[C@@H]2CO)cc(OC)c1OC
T/C (dose: 5.0 mg/kg/injection, schedule: Q04DX002 (ip), vehicle: saline with Tween-80): 105 % of control | T/C (dose: 10.0 mg/kg/injection, schedule: Q04DX002 (ip), vehicle: saline with Tween-80): 102 % of control | T/C (dose: 20.0 mg/kg/injection, schedule: Q04DX002 (ip), vehicle: saline with Tween-80): 102 % of control

CC(C)=CC[P+](CCCC[P+](CC=C(C)C)(c1ccccc1)c1ccccc1)(c1ccccc1)c1ccccc1
T/C (dose: 1.56 mg/kg/injection, schedule: Q04DX003 (ip), vehicle: saline): 100 % of control | T/C (dose: 3.12 mg/kg/injection, schedule: Q04DX003 (ip), vehicle: saline): 101 % of control

O=C(Nc1ccc(C2=NCCN2)cc1)c1cc2ccc(C3=NCCN3)cc2[nH]1
T/C (dose: 12.5 mg/kg/injection, schedule: Q04DX003 (ip), vehicle: saline): 101 % of control | T/C (dose: 25.0 mg/kg/injection, schedule: Q04DX003 (ip), vehicle: saline): 112 % of control | T/C (dose: 50.0 mg/kg/injection, schedule: Q04DX003 (ip), vehicle: saline): 118 % of control

CCCCOC(=O)/C=C/C(=O)N1CCN(C(=O)/C=C/C(=O)OCCCC)C(C)C1 (configuration not stated)
T/C [8]: 100 % of control | T/C (dose: 100.0 mg/kg/injection, schedule: Q01DX005 (ip), vehicle: Klucel (hydroxypropylcellulose) (HPC)): 94 % of control | T/C (dose: 200.0 mg/kg/injection, schedule: Q01DX005 (ip), vehicle: Klucel (hydroxypropylcellulose) (HPC)): 96 % of control

COC(=O)c1nc(NN)[nH]c(=O)c1C
T/C (dose: 15.0 mg/kg/injection, schedule: Q01DX005 (ip), vehicle: saline with Tween-80): 103 % of control | T/C (dose: 30.0 mg/kg/injection, schedule: Q01DX005 (ip), vehicle: saline with Tween-80): 98 % of control | T/C [6]: 99 % of control and 97 % of control

CCCCc1ccc2nccc(N/N=C/c3ccc(OC)c4ccccc34)c2c1
T/C (dose: 3.12 mg/kg/injection, schedule: Q01DX005 (ip), vehicle: Klucel (hydroxypropylcellulose) (HPC)): 100 % of control | T/C (dose: 6.25 mg/kg/injection, schedule: Q01DX005 (ip), vehicle: Klucel (hydroxypropylcellulose) (HPC)): 100 % of control | T/C [7]: 93 % of control and 94 % of control | T/C [8]: 87 % of control

CCN(CC)c1ccc2cc(S(=O)(=O)c3ccc(Cl)cc3)c(=O)oc2c1
T/C [3]: 86 % of control | T/C [4]: 92 % of control

— PubChem BioAssay AID330 (DTP/NCI, 2004)
